According to PMC7395068, “The evolution of strategies to minimise the risk of human drug-induced liver injury (DILI) in drug discovery and development” (Archives of Toxicology, 2020):
Read-outs that look alike come from different tables or passages of the source.

Assays:
[1] = test system: OATP1B1; conditions: known substrates; cited from earlier work
[2] = test system: primary human hepatocytes, NIH3T3 fibroblasts, BSEP, CYP3A4; conditions: cited from earlier work
[3] = test system: PHH 3D spheroids; parameters: method as in Bell et al. 2018; conditions: 14-day exposure, three donors, ref Bell et al. 2018; cited from earlier work
[4] = test system: PHH; conditions: cited from earlier work
[5] = cited from earlier work
[6] = test system: THLE or HepG2 cells, isolated mitochondria, BSEP; conditions: cited from earlier work
[7] = test system: hLiMTs; conditions: cited from earlier work
[8] = test system: HepG2 cells, primary human hepatocytes; conditions: In vitro Assay; ref Garside 2014; cited from earlier work
[9] = test system: PHH spheroids; conditions: cited from earlier work
[10] = test system: HepG2 C3A spheroid, BSEP, Glu/Gal in HepG2 cells, bioactivation; conditions: cited from earlier work
[11] = test system: HepaRG spheroids; test: Combined HCI (HCS) and cellular ATP 3D assay in HepaRG spheroids; conditions: for AC50 / minimal effective concentration: Homo sapiens
[12] = test system: rBsep; conditions: In vitro Assay; ref Dawson 2012; cited from earlier work
[13] = Plasma free fraction (fu) and unbound Cmax (Cmax,u); type: in vitro ADME, human; conditions: unbound plasma Cmax
Protocol: The prediction of DILI severity was evaluated further using the 3D combined HCI assays using plasma-free fraction. The majority of fu values were obtained from literature, when unavailable in-house prediction was utilised. Unbound plasma Cmax concentrations (Cmax,u) were derived by multiplying total plasma Cmax with the corresponding free fraction (fu) for each compound.

[14] = plasma free fraction; cited from earlier work
[15] = test system: hLiMTs; test: Combined HCI (HCS) and cellular ATP 3D assay in hLiMTs; conditions: for AC50 / minimal effective concentration: Homo sapiens
[16] = cited from earlier work; remark: listed apart in the source
[17] = test system: THLE-Null and THLE-3A4 cells; conditions: In vitro Assay; ref Gustafsson 2014; cited from earlier work
[18] = ref Chen 2011; cited from earlier work
[19] = read-out: Human plasma Cmax; total plasma Cmax.tot, median of 9 literature references; cited from earlier work
[20] = In vitro Assay, ref Schadt 2015
[21] = In vitro Assay, ref Proctor 2017
[22] = Modeled in vitro assays (cytotoxicity, mitochondrial dysfunction, BSEP), ref Aleo et al. 2019
[23] = Microtissue model structural based (HCI), combined HCS and ATP, MEC < 25 × Cmax.tot cut-off

Q: For `COc1ccccc1Oc1c(NS(=O)(=O)c2ccc(C(C)(C)C)cc2)nc(-c2ncccn2)nc1OCCO` [bosentan], which “substrate for hepatic uptake transporter OATP1B1” value [1] is on record?
A: known substrates

Q: What about the “DILI in vitro assay prediction, Schadt (2015)” value ([2]; BSEP & Metabolism based, ref Schadt et al. 2015) of the same molecule?
A: +VE

Q: And the “Cellular toxicity (3T3 cells)” value [2, 20]?
A: -VE

Q: What about the “Combined Assay” value [2, 20] of the same molecule?
A: +VE

Q: And the “GSH adduct HML” value [2, 20]?
A: +VE

Q: And the Hepatocyte cellular toxicity [2, 20]?
A: +VE

Q: What about the “MitoTox 3T3” value [2, 20] of the same molecule?
A: -VE

Q: What about the “TDI CYP3A4” value [2, 20] of the same molecule?
A: -VE

Q: And the hBSEP inhibition [2, 20]?
A: +VE

Q: And the “detection at 10 × Cmax.tot cut-off” value [3]?
A: only detected by one of three donors

Q: What about the “PHH/100xCmax, Proctor (2017)” value ([4]; 2D PHH, ATP, IC50 < 100 × Cmax.tot, ref Proctor et al. 2017) of the same molecule?
A: -VE

Q: What about the “PHH/100uM, Proctor (2017)” value ([4]; 2D PHH, ATP, IC50 threshold 100 µM, ref Proctor et al. 2017) of the same molecule?
A: -VE

Q: And the “PHH ATP <100uM” value [4, 21]?
A: -VE

Q: And the “DILI severity category (Chen et al. [2016])” value ([5]; LTKB DILIrank category, ref Chen et al. 2016)?
A: Most

Q: And the “DILI severity category (Chen 2016)” value ([5]; human DILI classification, LTKB DILIrank, ref Chen et al. 2016)?
A: Most

Q: And the DILI severity category ([5]; human DILI severity, ref Chen et al.)?
A: Most

Q: What about the “DILI +VE (5-8), DILI -VE (-4)” value ([5]; ref Chen 2016) of the same molecule?
A: +VE

Q: What about the DILI severity category ([5]; ref Chen 2016) of the same molecule?
A: vMost-DILI-Concern

Q: And the “Partition Hybrid HRM Score” value ([6]; In vitro Assay, ref Aleo 2019)?
A: +VE

Q: And the “Ro2 Hybrid HRM Score” value ([6]; In vitro Assay, ref Aleo 2019)?
A: +VE

Q: And the “Partition Hybrid HRM Score ≥4, Aleo (2019)” value [6, 22]?
A: +VE (Partition Hybrid HRM Score ≥4)

Q: And the “Partition Hybrid HRM Score ≥8, Aleo (2019)” value [6, 22]?
A: +VE (Partition Hybrid HRM Score ≥8)

Q: And the “Rule of Two hybrid HRM Score ≥3, Aleo (2019)” value [6, 22]?
A: +VE (Rule of Two hybrid HRM Score ≥3)

Q: And the “Rule of Two hybrid HRM Score ≥8, Aleo (2019)” value [6, 22]?
A: +VE (Rule of Two hybrid HRM Score ≥8)

Q: And the “hLiMTs ATP <100uM” value [7, 21]?
A: +VE (IC50 threshold of 100 µM)

Q: And the “hLiMTs/100xCmax, Proctor (2017)” value ([7]; hLiMTs, ATP, IC50 < 100 × Cmax.tot, ref Proctor et al. 2017)?
A: +VE (IC50 < 100 × Cmax.tot)

Q: What about the “hLiMTs/100uM, Proctor (2017)” value ([7]; hLiMTs, ATP, IC50 threshold 100 µM, ref Proctor et al. 2017) of the same molecule?
A: +VE (IC50 threshold of 100 µM)

Q: What about the “Cluster 1-6 +VE Assay” value [8] of the same molecule?
A: -VE

Q: What about the “hLiMTs ATP <20 x Cmax” value ([9]; In vitro Assay, ref Vorrink 2018) of the same molecule?
A: +VE (IC20 < 20 × Cmax.tot cut-off)

Q: And the “DILI in vitro assay prediction, Vorrink (2018)” value ([9]; PHH spheroids, ATP, 14 days, IC20 < 20 × Cmax.tot, ref Vorrink et al. 2018)?
A: +VE (IC20 < 20 × Cmax.tot cut-off)

Q: What about the “Bayesian Machine Learning DILI prediction, Williams (2019)” value ([10]; Bayesian modeling, ref Williams et al. 2019) of the same molecule?
A: +VE

Q: What about the “Bayesian Machine Learning” value ([10]; In vitro Assay, ref Williams 2019) of the same molecule?
A: +VE

Q: What about the “HepaRG <25x Avg Cmax ATP” value ([11]; HepaRG, ATP endpoint, cut-off <25x Avg Cmax) of the same molecule?
A: +ve

Q: What about the “HepaRG <100x Avg Cmaxu ATP” value ([11]; HepaRG, ATP endpoint, cut-off <100x Avg Cmaxu) of the same molecule?
A: -ve

Q: What about the “HepaRG <25x Avg Cmax HCS” value ([11]; HepaRG, HCS endpoints, cut-off <25x Avg Cmax) of the same molecule?
A: +ve

Q: What about the “HepaRG <100x Avg Cmaxu HCS” value ([11]; HepaRG, HCS endpoints, cut-off <100x Avg Cmaxu) of the same molecule?
A: -ve

Q: What about the “HepaRG <25x Avg Cmax All” value ([11]; HepaRG, all endpoints (ATP and HCS), cut-off <25x Avg Cmax) of the same molecule?
A: +ve

Q: What about the “HepaRG Cmax max All” value ([11]; HepaRG, all endpoints, Cmax max used) of the same molecule?
A: +ve

Q: And the “HepaRG Cmax min All” value ([11]; HepaRG, all endpoints, Cmax min used)?
A: +ve

Q: And the “HepaRG <10 uM All” value ([11]; HepaRG, all endpoints, cut-off <10 uM)?
A: -ve

Q: And the “HepaRG <100x Avg Cmaxu All” value ([11]; HepaRG, all endpoints, cut-off <100x Avg Cmaxu)?
A: -ve

Q: What about the AC50 ([11]; HepaRG, read-out: ATP endpoint AC50) of the same molecule?
A: 74.7 µM

Q: What about the minimal effective concentration ([11]; HepaRG, read-out: ATP endpoint MEC) of the same molecule?
A: 35.2 µM

Q: What about the AC50 ([11]; HepaRG, read-out: HCS endpoint AC50) of the same molecule?
A: 125 µM

Q: What about the minimal effective concentration ([11]; HepaRG, read-out: HCS endpoint MEC) of the same molecule?
A: 40 µM

Q: What about the “DILI prediction HepaRG spheroids (HCS-MEC)” value [11, 23] of the same molecule?
A: +VE (MEC < 25 × Cmax.tot cut-off)

Q: What about the “Inhibition of rBsep cutoff<1& cmax u>.2” value [12] of the same molecule?
A: +VE

Q: What about the “Inhibition of rBsep cutoff<3” value [12] of the same molecule?
A: +VE

Q: And the “Human plasma Cmax,u” value [13]?
A: 0.149 µM

Q: And the fu [14]?
A: 0.020

Q: What about the AC50 ([15]; read-out: ATP endpoint AC50) of the same molecule?
A: 57.9 µM

Q: What about the minimal effective concentration ([15]; read-out: ATP endpoint MEC) of the same molecule?
A: 29.4 µM

Q: And the AC50 ([15]; read-out: HCS endpoint AC50)?
A: 179 µM

Q: What about the minimal effective concentration ([15]; read-out: HCS endpoint MEC) of the same molecule?
A: 63 µM

Q: And the “DILI prediction hLiMTs (HCS-MEC)” value [15, 23]?
A: +VE (MEC < 25 × Cmax.tot cut-off)

Q: What about the “hLiMTs <25x Avg Cmax ATP” value ([15]; hLiMTs, ATP endpoint, cut-off <25x Avg Cmax) of the same molecule?
A: +ve

Q: And the “hLiMTs <100x Avg Cmaxu ATP” value ([15]; hLiMTs, ATP endpoint, cut-off <100x Avg Cmaxu)?
A: -ve

Q: What about the “hLiMTs <25x Avg Cmax HCS” value ([15]; hLiMTs, HCS endpoints, cut-off <25x Avg Cmax) of the same molecule?
A: +ve

Q: What about the “hLiMTs <100x Avg Cmaxu HCS” value ([15]; hLiMTs, HCS endpoints, cut-off <100x Avg Cmaxu) of the same molecule?
A: -ve

Q: What about the “hLiMTs <25x Avg Cmax All” value ([15]; hLiMTs, all endpoints (ATP and HCS), cut-off <25x Avg Cmax) of the same molecule?
A: +ve

Q: And the “hLiMTs Cmax max All” value ([15]; hLiMTs, all endpoints, Cmax max used)?
A: +ve

Q: And the “hLiMTs Cmax min All” value ([15]; hLiMTs, all endpoints, Cmax min used)?
A: +ve

Q: What about the “hLiMTs <10 uM All” value ([15]; hLiMTs, all endpoints, cut-off <10 uM) of the same molecule?
A: -ve

Q: And the “hLiMTs <100x Avg Cmaxu All” value ([15]; hLiMTs, all endpoints, cut-off <100x Avg Cmaxu)?
A: -ve

Q: What about the “Assigned DILI category” value ([16]; Chen et al. 2016 or literature alignment, ref Chen et al. 2016) of the same molecule?
A: 3

Q: What about the “In vivo DILI” value ([16]; ref Aleo 2019) of the same molecule?
A: +VE

Q: What about the “In vivo DILI” value ([16]; ref Dawson 2012) of the same molecule?
A: +VE

Q: What about the “In vivo DILI” value ([16]; ref Garside 2014) of the same molecule?
A: +VE

Q: And the “In vivo DILI” value ([16]; ref Gustafsson 2014)?
A: +VE

Q: What about the “In vivo DILI” value ([16]; ref Proctor 2017) of the same molecule?
A: +VE

Q: What about the “In vivo DILI” value ([16]; ref Schadt 2015) of the same molecule?
A: +VE

Q: What about the “In vivo DILI” value ([16]; ref Vorrink 2018) of the same molecule?
A: +VE

Q: And the “In vivo DILI” value ([16]; ref Williams 2019)?
A: +VE

Q: What about the THLE-Null [17] of the same molecule?
A: -VE

Q: What about the THLE-Null/3A4 [17] of the same molecule?
A: -VE

Q: And the “DILI Score (FDA) (1-8)” value [18]?
A: 7

Q: And the Cmax [19]?
A: 7.43 µM
